pKi: −log10 of the molar value.
Experiments:
[1] = Metabolic stability in liver microsomes, guinea pig; type: in vitro ADME
Procedure: (§1) The metabolic stability of compound (I) was tested in liver microsomes from all in house available species at 1 and 5 μM. One metabolite of 16 mass units higher than parent, was found in all incubations, except with human liver microsomes.

NMRI mice [2] = test: Mouse forced swim test (mFST); type: in vivo
Procedure: Compound (I) was tested in two of the most widely used behavioural screens for predicting antidepressant effects in the clinic: the mouse forced swim test (mFST) and mouse tail suspension test (mTST).
In order to further characterize the role played by 5-HT and DA-ergic neurotransmission in the antidepressant-like effects of compound (I), the potential involvement of 5-HT1A and D1 receptors was investigated in the mFST.

[3] = Metabolic stability in liver microsomes, mouse; type: in vitro ADME
Procedure: as §1

[4] = 14-day repeat-dose study in NMRI mice; type: in vivo, mouse
Procedure: In a 14-day repeat-dose study 4 groups of 8 male and 8 female NMRI mice were treated daily with compound (I) at doses of 15, 30, and 60 mg/kg p.o. (Groups 2, 3 and 4), or vehicle, 5% glucose s.c. (Group 1). A satellite group 90 mg/kg p.o. (group 5) was conducted accordingly to increase the exposure and efficacy.

[5] = Linearity after single p.o. dose in mouse; type: in vivo; conditions: for AUC(0-inf) / bioavailability / half-life: female, NMRI, mouse; for AUC(0-inf) / bioavailability / half-life / Cmax / Tmax: plasma, po; for bioavailability: compared to 10 mg/kg i.v.; for half-life: read-out: T½ (converted); for Cmax / Tmax: female NMRI mouse; for Tmax: 5% Tween 80
NMRI mice [6] = test: Mouse marble burying test (mMB); type: in vivo
Procedure: FIG. 13: Marble burying. In the marble-burying test mice exposed to a novel object (marbles) bury them in the sawdust floor covering. Compounds showing anxiolytic-like activity decrease the number of buried marbles at non-sedative doses. […] The number of marbles covered by sawdust was counted at the end of a 60-min session.
Compound (I) was tested in three widely used behavioural screens for predicting anxiolytic effects in the clinic: the mouse marble burying test (mMB), mouse zero maze (mZM) and mouse stress-induced hyperthermia test (mSIH).

plasma protein [7] = test: Plasma protein binding by equilibrium dialysis, dog; type: in vitro ADME
Procedure: (§2) The plasma protein binding was tested in rat, mouse, dog and human plasma by equilibrium dialysis. The plasma protein binding of this compound is remarkably low (Table 24).

[8] = test system: Salmonella typhimurium strains TA 100 and TA 98; test: Ames screening test; type: cell-based; conditions: 1.6 to 5000 μg/plate, presence or absence of S-9 mix
Procedure: Compound (I) was tested for genotoxicity in the Ames screening test using Salmonella typhimurium strains TA 100 and TA 98. Compound (I) was tested at dose levels of 1.6 to 5000 μg/plate in the presence or absence of S-9 mix.

5-HT transporter = 5-HT transporter (Rattus norvegicus, UniProt P31652); test: ^3H-Citalopram binding, rat
Sequence of 5-HT transporter (P31652 whole entry): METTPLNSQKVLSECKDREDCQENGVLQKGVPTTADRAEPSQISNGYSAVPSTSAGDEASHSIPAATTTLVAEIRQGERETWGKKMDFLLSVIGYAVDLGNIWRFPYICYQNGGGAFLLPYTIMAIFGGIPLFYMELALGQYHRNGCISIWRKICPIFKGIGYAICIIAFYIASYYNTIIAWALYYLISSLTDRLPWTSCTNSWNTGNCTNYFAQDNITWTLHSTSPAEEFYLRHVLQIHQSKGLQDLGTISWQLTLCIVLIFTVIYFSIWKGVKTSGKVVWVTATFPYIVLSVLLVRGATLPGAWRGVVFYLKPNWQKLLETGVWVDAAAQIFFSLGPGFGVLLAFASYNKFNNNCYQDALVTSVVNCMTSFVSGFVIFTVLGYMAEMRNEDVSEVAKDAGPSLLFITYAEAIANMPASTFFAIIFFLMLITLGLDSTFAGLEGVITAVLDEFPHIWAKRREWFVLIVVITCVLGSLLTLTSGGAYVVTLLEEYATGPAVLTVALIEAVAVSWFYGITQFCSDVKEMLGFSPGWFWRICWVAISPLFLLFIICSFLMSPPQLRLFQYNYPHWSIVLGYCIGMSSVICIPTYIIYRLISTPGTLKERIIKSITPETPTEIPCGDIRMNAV
Text: (§3) Compound (I) has been characterized as a monoamine reuptake inhibitor, based on the profile in a series of functional assays (Table 2).

NA transporter = NA transporter (Homo sapiens, UniProt P23975); test: ^3H-Nisoxetine binding, human
Sequence of NA transporter (P23975 whole entry): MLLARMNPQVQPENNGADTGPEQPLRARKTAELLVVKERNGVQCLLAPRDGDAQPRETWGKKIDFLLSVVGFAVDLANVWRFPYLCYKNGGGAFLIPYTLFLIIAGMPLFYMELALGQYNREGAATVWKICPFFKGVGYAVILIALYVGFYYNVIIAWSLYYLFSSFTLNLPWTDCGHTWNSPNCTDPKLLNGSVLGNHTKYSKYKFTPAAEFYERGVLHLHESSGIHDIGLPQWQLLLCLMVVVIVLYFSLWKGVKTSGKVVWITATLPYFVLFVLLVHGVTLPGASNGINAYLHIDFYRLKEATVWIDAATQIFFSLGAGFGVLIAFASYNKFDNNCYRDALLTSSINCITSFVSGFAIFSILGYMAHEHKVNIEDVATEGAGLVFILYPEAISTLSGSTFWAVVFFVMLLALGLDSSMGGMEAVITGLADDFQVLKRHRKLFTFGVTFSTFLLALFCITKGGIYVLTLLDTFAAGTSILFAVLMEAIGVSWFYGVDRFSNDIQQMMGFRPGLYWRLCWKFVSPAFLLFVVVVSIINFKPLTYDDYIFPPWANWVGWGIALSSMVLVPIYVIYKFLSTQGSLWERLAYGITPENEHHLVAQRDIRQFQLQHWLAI
Text: as §3

plasma protein [9] = test: Plasma protein binding by equilibrium dialysis, human; type: in vitro ADME
Procedure: as §2

in vivo = conditions: male, Wistar, rat, plasma
[10] = 60 mg/kg p.o. 14 days (Group 4)
[11] = 90 mg/kg p.o. 14 days (Group 5)

**Q.** Which results are given for `O=c1ccc2ccc(O[C@@H]3C[C@H]4CC[C@@H](C3)N4)cc2o1` [Compound (I), exo-7-(8-aza-bicyclo[3.2.1]oct-3-yloxy)-chromen-2-one]?
**A.** Stability at 1 μM [1]: 98%; Stability at 5 μM [1]: 82%; MED (NMRI mice [2]; mFST (NMRI), p.o. 60 min): 1 mg/kg; MED (NMRI mice [2]; mFST, 0.03, 0.1, 0.3 mg/kg p.o. −60 min + WAY100635 0.1 mg/kg s.c. −60 min): 0.1 mg/kg; MED (NMRI mice [2]; mFST, 1, 3, 10 mg/kg p.o. −60 min + SCH23390 0.00375 mg/kg s.c. −60 min): 10 mg/kg; MED (NMRI mice [2]; mFST, 1, 3, 10 mg/kg p.o. −60 min + WAY100635 1 mg/kg s.c. −60 min): 1 mg/kg; Leftward shift in dose-response (NMRI mice [2]; mFST, with low dose of WAY100635): 10 fold; Rightward shift in dose-response (NMRI mice [2]; mFST, with non-sedative dose of SCH23390): 10 fold; Stability at 1 μM [3]: 89%; Stability at 5 μM [3]: 100%; Activity [4, 10]: increase in activity in both male and female; Body weight [4, 10]: significant decrease in body weight in the female group; Relative liver weight [4, 10]: significant decrease in relative liver weight in both sexes; Activity [4, 11]: increase in activity in both male and female; Body weight and relative liver weight [4, 11]: significant decrease in body weight and in relative liver weight in both sexes; Macroscopic findings at termination ([4]; 15 up to 90 mg/kg/day p.o. 14 days): no treatment-related macroscopic findings; AUC(0-inf) ([5]; 30 mg/kg p.o.): 14300 ng·h/mL; bioavailability ([5]; 30 mg/kg p.o.): 206%; half-life ([5]; 30 mg/kg p.o.): 306 min; AUC(0-inf) ([5]; 60 mg/kg p.o.): 34700 ng·h/mL; bioavailability ([5]; 60 mg/kg p.o.): 250%; half-life ([5]; 60 mg/kg p.o.): 366 min; Linearity of kinetics (AUC versus dose) ([5]; mice, relatively high doses p.o., single dose): tendency to sub-linear kinetics; Cmax ([5]; 30 mg/kg p.o.): 3080 ng/mL; Tmax ([5]; 30 mg/kg p.o.): 30 min; Cmax ([5]; 60 mg/kg p.o.): 4150 ng/mL; Tmax ([5]; 60 mg/kg p.o.): 30 min; MED (NMRI mice [6]; Marble burying, p.o., −60 min): 0.1 mg/kg; Number of visible marbles (NMRI mice [6]; per oral, NMRI mice, 60-min session): dose-dependently (0.1-1.0 mg/kg) increases in the number of visible marbles; fraction unbound at 2710 ng/ml (plasma protein [7]): 0.871; Mutagenic activity (genotoxicity) [8]: did not show any evidence of mutagenic activity; pKi (5-HT transporter): 9.55; pKi (NA transporter): 6.57; fraction unbound at 2710 ng/ml (plasma protein [9]): 0.714; Vd (in vivo; intravenous, 2.5 mg/kg): 5.6 L/kg; clearance (in vivo; intravenous, 2.5 mg/kg): 137 mL/min/kg; AUC(0-inf) (in vivo; iv, 2.5 mg/kg): 306 ng·h/mL; half-life (in vivo; iv, 2.5 mg/kg): 48 min; bioavailability (in vivo; oral, 5 mg/kg): 3%; AUC(0-inf) (in vivo; po, 5 mg/kg): 17 ng·h/mL; Cmax (in vivo; po, 5 mg/kg): 8 ng/mL; Tmax (in vivo; po, 5 mg/kg): 30 min
